Ends that are not written are not given here.
Key:
[1] = tested on: Human peripheral blood mononuclear (PBM) cells; experiment: PHA-stimulated lymphocyte proliferation (3H-thymidine uptake); format: cell-based; details: for ED50 or dose of peptide required to inhibit lymphocyte proliferation 50%: Example 17
Excerpt: A lymphocyte cell culture system was used to examine the ability of various polypeptides and conjugates to mimic the ability of Apo E to inhibit lymphocyte differentiation as evidence by proliferation.
Human peripheral blood mononuclear (PBM) cells are isolated from whole blood on a Ficoll-Hypaque gradient. The collected PBMs are washed three times with fresh medium (RPMI-1640 plus 5% fetal bovine serum, glutamine, penicillin, streptomycin and HEPES buffer). After washing, the cells are counted and set at a density of 1×10^5 /ml. For culture, 0.2 ml of the cells are plated per well of a 96-well microtiter plate. The peptide or conjugate is added to the wells in a 50 ul volume that can be either filter or UV sterilized. The typical timing for this experiment is to expose the cells to the Apo E polypeptide or self-conjugate over night. PHA, the mitogen that stimulates lymphocyte growth and proliferation, is added the next day. Forty-eight hours after the addition of PHA, 1 uCi of ^3 H-thymidine is added per well in a 1 ul volume and 18-24 hours later the cells are harvested on a mash. The mash cell harvester functions to collect the cells on filter paper where they are washed with buffer to remove free ^3 H-thymidine. The filter papers are dried, put into scintillation vials with scintillation cocktail and the B emissions obtained. Each data point collected represents the average thymidine uptake in four wells, and the standard error was less than 10% for all data points.
Various concentrations of various Apo E peptide were added to cultures that contained 8×10^5 peripheral blood mononuclear cells per ml. The cells were cultured at 37C and RPMI with 5% serum. All cells were exposed to PHA at 24 hours, labeled with 3H-thymidine at 72 hours and harvested at 90 hours. The counts per minute (cpm) of 3H-thymidine in the harvested cells was measured, and the data are expressed as the mean of four wells per treatment as a measure of thymidine uptake (x 1000 cpm). The standard deviation was less than 10% for all means.

[2] = tested on: Human peripheral blood mononuclear (PBM) cells; experiment: PHA-stimulated PBM cell proliferation in serum-free CFBI medium; format: cell-based; details: for IC50: read-out: Average Specific Activity (peptide concentration that causes a 50% reduction in activity)
Description: In these studies, human peripheral blood mononuclear (PBM) cells were isolated and assayed for phytohemagglutinin (PHA)-stimulated proliferation as described by Pepe et al (J. Immunol., 136:3716-3723, 1986) except that the cells were resuspended and cultured in a serum-free and protein-free CFBI medium as described by Shive et al, Proc. Natl. Acad. Sci. […] After 48 h the cultures were pulsed for 18 h with […] of [^3 H]-methylthymidine and harvested onto glass fiber filters. Radioactivity of the filters was counted in a Beckman liquid scintillation counter. […] The average biological activity of each polypeptide for inhibiting lymphocyte […] proliferation is shown in Table 6, and is expressed as an average specific activity, which is the peptide concentration that causes a 50% reduction in activity.

[3] = target: T1, fibroblast LDL receptors (Homo sapiens, UniProt P01130); experiment: 125I-LDL binding to fibroblasts; details: for effect of substitution on ability to inhibit binding of 125I-LDL to fibroblasts: substitution at both positions of tandem peptide
T1 construct: transferred to DMEM medium with 10% lipoprotein-depleted serum (LPDS) for 48 hr to upregulate the LDL receptors; endogenous in cells; host or cells: normal fibroblasts
Excerpt: The role of specific amino acids within residues 141-155 of intact apo E has been studied by Lalazar et al., J. Biol. Chem., 263:3542 (1988) with human apo E variants containing single amino acid substitutions. The variants were produced in a bacterial expression system complexed with the phospholipid, dimyristoylphosphatidylcholine (DMPC) and tested for their ability to bind to fibroblast LDL receptors. Lalazar et al., J. Biol. Chem., 263:3542 (1988). To confirm that the tandem peptide was bound by the LDL receptor and to identify amino acids within this peptide that were critical for binding, three tandem peptides were prepared as described in Example 1 that contained the same amino acid substitutions at both positions in the tandem sequence. The changes included substitutions of the basic amino acids Lys 143 to Ala, Arg 150 to Ala, and Leu 144 with an alpha helix disrupting amino acid, Pro. ^125 I-LDL at a specific activity of 700-900 cpm/ng (>99% precipitable by 10% TCA) was used for the binding assay as described in Example 9. Normal fibroblasts were plated in 16 mm culture dishes, grown for 72-96 hr in DMEM medium with 10% fetal bovine serum (FBS) and then transferred to DMEM medium with 10% lipoprotein-depleted serum (LPDS) for 48 hr to upregulate the LDL receptors. The amount of ^125 I-LDL bound per well was normalized to the protein content of each well, which was measured with the Bio-Rad protein assay reagent using bovine serum albumin (BSA) as a standard.

[4] = tested on: ovarian theca/interstitial cells; experiment: ovarian androgen (androstenedione) production, LH-stimulated cultures; format: cell-based, rats; details: non-conjugated, monomeric form
Excerpt: The cell system used to examine the effect of various peptides and conjugates on ovarian androgen production was that described by Curtiss et al., J. Biol. Chem., 263:10965, (1988). Briefly, hypophysectomized (pituitary removed) immature female rats are sacrificed by cervical dislocation. The ovaries taken from the rats were trimmed free of fat and other non-ovarian tissues, cut into approximately six to eight pieces per ovary and dissociated in a solution of collagenase Dnaase which degrades the connective tissue releasing cell clusters. Approximately one to two hours of 37C incubation is required to dissociate the tissue. The cells were washed three times with fresh McCoy's 5A modified medium supplemented with glutamine and penicillin/streptomycin. No serum was added to this medium. The cells were cultured over night in 10 ml of medium in a T-25 flask to allow the non-steroidogenic cells to adhere. The next day non-adherent cells were recovered, washed three times with fresh media, counted and plated at a density of 1×10^3/ ml aliquotting 0.2 ml per well of a 96-well microtiter plate. All media in the experiment contains luteinizing hormone (LH) at 4 ng/ml and human high density lipoprotein (HDL) at 300 μg protein/mi. Monomeric peptides, peptide-BSA conjugates and self-conjugated peptide preparations at various concentrations (0.2 to 50 μg/ml) were added to the cells. The cells were then cultured for 48 hours at 37C, the supernatants were recovered, transferred to a clean 96-well microtiter plate and kept at -20C until the concentrations of androstenedione and progesterone were measured by radioimmunoassay. Each data point represents the average of measured androstenedione concentrations in four wells per treatment, and the standard error was less than 10% for all data points.
The ability of tandem Apo E peptide p(141-155)2 and self-conjugates of this peptide to affect ovarian androgen production was examined using the assay described in Example 4. […] After 48 hours of culture, the supernatants were collected, the androstenedione concentration measured by radioimmunoassay. […]

[5] = target: LDL receptor (Homo sapiens, UniProt P01130); experiment: fibroblast 125I-LDL degradation; format: cell-based; parameters: transferred to DMEM medium with 10% lipoprotein-depleted serum (LPDS) for 48 hr to upregulate the LDL receptors; endogenous in cells; host or cells: normal fibroblasts; details: molar basis
Description: A trimer of the p141-155 peptide, p(141-155)3, was synthesized as in Example 1 and its activity compared with p(141-155) (monomeric) and with p(141-155)2 (dimeric) peptide. Normal fibroblasts were plated in wells of a 96-well culture plate and grown for 96 hr in DMEM medium with 10% FBS. The cells were transferred to DMEM medium with 10% LPDS for 48 hr to up regulate the LDL receptors. The LDL degradation assay was performed according to Example 9 with 2 μg/ml of ^125 I-LDL (300-500 cpm/ng) in 0.2 ml/well in DMEM medium with 10% LPDS and incubated for 5 hr at 37° C. The supernatants removed from the wells were extracted with 10% TCA. The TCA soluble counts were normalized to protein content per well as measured by the Bio-Rad protein assay.

T1 sequence (P01130 22-860): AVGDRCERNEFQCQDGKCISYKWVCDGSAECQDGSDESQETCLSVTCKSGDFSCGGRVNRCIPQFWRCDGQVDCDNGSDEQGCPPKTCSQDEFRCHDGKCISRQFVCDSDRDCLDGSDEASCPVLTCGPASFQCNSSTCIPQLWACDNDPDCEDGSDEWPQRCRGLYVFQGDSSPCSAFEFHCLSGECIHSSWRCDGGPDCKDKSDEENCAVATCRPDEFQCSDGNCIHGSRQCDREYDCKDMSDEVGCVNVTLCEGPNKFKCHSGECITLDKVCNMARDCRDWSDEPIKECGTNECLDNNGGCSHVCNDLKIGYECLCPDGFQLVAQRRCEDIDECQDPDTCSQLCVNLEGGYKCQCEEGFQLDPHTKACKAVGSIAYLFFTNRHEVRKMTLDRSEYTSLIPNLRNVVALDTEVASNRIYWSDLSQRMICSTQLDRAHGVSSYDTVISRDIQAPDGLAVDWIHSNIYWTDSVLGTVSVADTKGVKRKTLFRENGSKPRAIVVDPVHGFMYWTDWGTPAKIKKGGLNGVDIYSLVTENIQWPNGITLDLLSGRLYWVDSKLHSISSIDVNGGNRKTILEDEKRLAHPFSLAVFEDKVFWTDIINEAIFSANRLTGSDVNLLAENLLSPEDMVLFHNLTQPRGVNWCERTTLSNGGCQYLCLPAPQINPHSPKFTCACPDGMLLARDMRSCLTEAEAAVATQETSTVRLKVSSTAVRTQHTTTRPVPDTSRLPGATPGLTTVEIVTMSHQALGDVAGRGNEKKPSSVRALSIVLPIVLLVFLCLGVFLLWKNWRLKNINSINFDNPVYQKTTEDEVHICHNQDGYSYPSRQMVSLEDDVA
Sequence of LDL receptor (P01130 22-860): as above

Question: Which results are given for “Self-conjugated apo AI95-105: self-conjugated control peptide of apo AI residues 95-105 (AKVQPYLDDFQ; also: self-conjugated; UniProt P02647 119-129, looked up, fragment) [reference compound]”?
Answer: 3H-Thymidine Uptake (cpm ± SD), With Washing ([1]; 40 μg/ml, cells washed three times at 24 hr prior to PHA): 64,524 ± 4,200 cpm; 3H-Thymidine Uptake (cpm ± SD), No Washing ([1]; 40 μg/ml, no washing): 83,480 ± 4,027 cpm

Question: Which results are given for “LRKLRKRLLADADDLLRKLRKRLLADADD [p(K150 --A)2]”?
Answer: peptide concentration above which uptake of tritiated thymidine / lymphocyte proliferation was inhibited [2]: above 4 uM; IC50 [2]: 7.5 ± 3 µM; effect of substitution on ability to inhibit binding of 125I-LDL to fibroblasts [3]: without significant alterations in the biological activity

Question: How did the “effect on androgen secretion” value [4] turn out when “RGLSAIRERL [p172-182, reference compound]” was run?
Answer: Its value is “no effect”.

Question: “LRALRKRLLRDADDLLRALRKRLLRDADD [p(K143 --A)2]” was tested. Which “peptide concentration above which uptake of tritiated thymidine / lymphocyte proliferation was inhibited” value [2] did it give?
Answer: The value was “above 4 uM”.

Question: What about the IC50 [2] of the same substance?
Answer: Its IC50 is 5.6 ± 1.7 µM.

Question: What about the “effect of substitution on ability to inhibit binding of 125I-LDL to fibroblasts” value [3] of the same substance?
Answer: Its value is “smallest effect”.

Question: What does the source list for Y(LRKLRKRLLRDADDL)4 [Tetramer]?
Answer: inhibitory activity relative to the dimer ([2]; molar basis): twice; IC50 [2]: 2.8 ± 1.3 µM; ED50 or dose of peptide required to inhibit lymphocyte proliferation 50% [1]: 1.2 µM

Question: With “LRKLRKRLLRDADDLLRKLRKRLLRDADD-LRKLRKRLLRDADDL [p(141-155)3]” as the substance, how does the “effectiveness in inhibiting fibroblast 125I-LDL degradation relative to the dimeric peptide” value [5] read?
Answer: The value was 15 times.

Question: And the “ED50 or dose of peptide required to inhibit lymphocyte proliferation 50%” value [1]?
Answer: Its value is 7 µM.

Question: For “LRKPRKRLLRDADDLLRKPRKRLLRDADDL [144 leu--pro, (LRKPRKRLLRDADDL)2]”, which “activity in inhibiting 125I-LDL binding to fibroblasts” value ([3]; at 60 μM) is on record?
Answer: Its value is “no activity”.

Source: patent US5473039A, “Polypeptide analogs of apolipoprotein E, diagnostic systems and methods using the analogs” (The Scripps Research Institute, priority 1991, dated 1995)
